{"source": "patent US9695155B2", "about": "“Herbicidal substituted pyrimidinyloxy benzene compounds” (E. I. DU PONT DE NEMOURS AND COMPANY, priority 2013, dated 2017)", "key": {"soybean": {"tested_on": "soybean", "experiment": "Test C postemergence", "assay_type": "in vivo, Glycine max", "conditions": "for Plant response rating (0 to 100), Soybean: postemergence; for Plant response rating, Soybean: Postemergence, scale 0 to 100 (0 no effect, 100 complete control)", "in_short": "(§1)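 Injury was assessed visually against controls 13 to 15 days after application, with 0 meaning no effect and 100 full control; missing entries are shown as a dash. Preemergence sprays hit seeded loam–sand soil, postemergence sprays hit 1- to 4-leaf plants.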"}, "pigweed [1]": {"tested_on": "pigweed", "experiment": "Test A preemergence", "assay_type": "in vivo, Amaranthus retroflexus", "in_short": "(§2)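 Greenhouse pot test, loam/sand soil. Formulation: non-phytotoxic solvent mix plus surfactant. Pre: directed spray onto soil after sowing. Post: plants at 1–2 leaf, 2–10 cm. Rated visually vs untreated controls at ~10 d, 0 (no effect) to 100 (complete control).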"}, "giant foxtail [2]": {"tested_on": "giant foxtail", "experiment": "Test C postemergence", "assay_type": "in vivo, Setaria faberii", "conditions": "for Plant response rating (0 to 100), Foxtail, Giant: postemergence; for Plant response rating, Foxtail, Giant: Postemergence, scale 0 to 100 (0 no effect, 100 complete control)", "in_short": "as §1"}, "wild oat": {"tested_on": "wild oat", "experiment": "Test C postemergence", "assay_type": "in vivo, Avena fatua", "conditions": "for Plant response rating (0 to 100), Oat, Wild: postemergence; for Plant response rating, Oat, Wild: Postemergence, scale 0 to 100 (0 no effect, 100 complete control)", "in_short": "as §1"}, "velvetleaf [3]": {"tested_on": "velvetleaf", "experiment": "Test A postemergence", "assay_type": "in vivo, Abutilon theophrasti", "in_short": "as §2"}, "large (Lg) crabgrass [4]": {"tested_on": "large (Lg) crabgrass", "experiment": "Test A preemergence", "assay_type": "in vivo, Digitaria sanguinalis", "in_short": "as §2"}, "giant foxtail [5]": {"tested_on": "giant foxtail", "experiment": "Test A postemergence", "assay_type": "in vivo, Setaria faberii", "in_short": "as §2"}, "giant foxtail [6]": {"tested_on": "giant foxtail", "experiment": "Test A preemergence", "assay_type": "in vivo, Setaria faberii", "in_short": "as §2"}, "wheat, winter": {"tested_on": "wheat, winter", "experiment": "Test C postemergence", "assay_type": "in vivo, Triticum aestivum", "conditions": "for Plant response rating (0 to 100), Wheat: postemergence; for Plant response rating, Wheat: Postemergence, scale 0 to 100 (0 no effect, 100 complete control)", "in_short": "as §1"}, "chickweed": {"tested_on": "chickweed", "experiment": "Test C postemergence", "assay_type": "in vivo, Stellaria media", "conditions": "for Plant response rating (0 to 100), Chickweed: postemergence; for Plant response rating, Chickweed: Postemergence, scale 0 to 100 (0 no effect, 100 complete control)", "in_short": "as §1"}, "ragweed": {"tested_on": "ragweed", "experiment": "Test C postemergence", "assay_type": "in vivo, Ambrosia elatior", "conditions": "for Plant response rating (0 to 100), Ragweed: postemergence; for Plant response rating, Ragweed: Postemergence, scale 0 to 100 (0 no effect, 100 complete control)", "in_short": "as §1"}, "velvetleaf [7]": {"tested_on": "velvetleaf", "experiment": "Test A preemergence", "assay_type": "in vivo, Abutilon theophrasti", "in_short": "as §2"}, "large (Lg) crabgrass [8]": {"tested_on": "large (Lg) crabgrass", "experiment": "Test A postemergence", "assay_type": "in vivo, Digitaria sanguinalis", "in_short": "as §2"}, "pigweed [9]": {"tested_on": "pigweed", "experiment": "Test A postemergence", "assay_type": "in vivo, Amaranthus retroflexus", "in_short": "as §2"}, "velvetleaf [10]": {"tested_on": "velvetleaf", "experiment": "Test C postemergence", "assay_type": "in vivo, Abutilon theophrasti", "conditions": "for Plant response rating (0 to 100), Velvetleaf: postemergence; for Plant response rating, Velvetleaf: Postemergence, scale 0 to 100 (0 no effect, 100 complete control)", "in_short": "as §1"}, "[11]": {"conditions": "125 g ai/ha, 0 to 100 scale where 0 is no effect and 100 is complete control"}, "[12]": {"conditions": "500 g ai/ha, 0 to 100 scale, 0 no effect, 100 complete control, approx. 10 days"}, "[13]": {"conditions": "500 g ai/ha, 0 to 100 scale, 0 no effect, 100 complete control"}}}
{"molecule": "Fc1cnc(Oc2ccccc2-n2cc(C(F)(F)F)cn2)nc1", "note": "[Compound 47]", "values": [{"measurement": "Plant response rating (0 to 100), Soybean", "setting": "soybean; 125 g ai/ha", "value": 65}, {"measurement": "Plant response rating (0 to 100), Soybean", "setting": "soybean; 250 g ai/ha", "value": 65}, {"measurement": "Plant response rating, Soybean", "setting": "soybean; 31 g ai/ha, 13 to 15 days", "value": 35}, {"measurement": "Plant response rating, Soybean", "setting": "soybean; 62 g ai/ha", "value": 45}, {"measurement": "Plant response rating, Pigweed", "setting": "pigweed [1]; [11]", "value": 100}, {"measurement": "Pigweed plant response rating", "setting": "pigweed [1]; [12]", "value": 100}, {"measurement": "Plant response rating (0 to 100), Foxtail, Giant", "setting": "giant foxtail [2]; 125 g ai/ha", "value": 25}, {"measurement": "Plant response rating (0 to 100), Foxtail, Giant", "setting": "giant foxtail [2]; 250 g ai/ha", "value": 80}, {"measurement": "Plant response rating, Foxtail, Giant", "setting": "giant foxtail [2]; 31 g ai/ha, 13 to 15 days", "value": 10}, {"measurement": "Plant response rating, Foxtail, Giant", "setting": "giant foxtail [2]; 62 g ai/ha", "value": 25}, {"measurement": "Plant response rating (0 to 100), Oat, Wild", "setting": "wild oat; 125 g ai/ha", "value": 0}, {"measurement": "Plant response rating (0 to 100), Oat, Wild", "setting": "wild oat; 250 g ai/ha", "value": 5}, {"measurement": "Plant response rating, Oat, Wild", "setting": "wild oat; 31 g ai/ha, 13 to 15 days", "value": 0}, {"measurement": "Plant response rating, Oat, Wild", "setting": "wild oat; 62 g ai/ha", "value": 0}, {"measurement": "Plant response rating, Velvetleaf", "setting": "velvetleaf [3]; [11]", "value": 100}, {"measurement": "Plant response rating, Velvetleaf", "setting": "velvetleaf [3]; [13]", "value": 100}, {"measurement": "Plant response rating, Crabgrass, Large", "setting": "large (Lg) crabgrass [4]; [11]", "value": 90}, {"measurement": "Crabgrass, Large plant response rating", "setting": "large (Lg) crabgrass [4]; [12]", "value": 100}, {"measurement": "Plant response rating, Foxtail, Giant", "setting": "giant foxtail [5]; [11]", "value": 80}, {"measurement": "Plant response rating, Foxtail, Giant", "setting": "giant foxtail [5]; [13]", "value": 100}, {"measurement": "Plant response rating, Foxtail, Giant", "setting": "giant foxtail [6]; [11]", "value": 100}, {"measurement": "Foxtail, Giant plant response rating", "setting": "giant foxtail [6]; [12]", "value": 100}, {"measurement": "Plant response rating (0 to 100), Wheat", "setting": "wheat, winter; 125 g ai/ha", "value": 0}, {"measurement": "Plant response rating (0 to 100), Wheat", "setting": "wheat, winter; 250 g ai/ha", "value": 0}, {"measurement": "Plant response rating, Wheat", "setting": "wheat, winter; 31 g ai/ha, 13 to 15 days", "value": 0}, {"measurement": "Plant response rating, Wheat", "setting": "wheat, winter; 62 g ai/ha", "value": 0}, {"measurement": "Plant response rating (0 to 100), Chickweed", "setting": "chickweed; 125 g ai/ha", "value": 50}, {"measurement": "Plant response rating (0 to 100), Chickweed", "setting": "chickweed; 250 g ai/ha", "value": 50}, {"measurement": "Plant response rating, Chickweed", "setting": "chickweed; 31 g ai/ha, 13 to 15 days", "value": 5}, {"measurement": "Plant response rating, Chickweed", "setting": "chickweed; 62 g ai/ha", "value": 5}, {"measurement": "Plant response rating (0 to 100), Ragweed", "setting": "ragweed; 125 g ai/ha", "value": 50}, {"measurement": "Plant response rating (0 to 100), Ragweed", "setting": "ragweed; 250 g ai/ha", "value": 85}, {"measurement": "Plant response rating, Ragweed", "setting": "ragweed; 31 g ai/ha, 13 to 15 days", "value": 20}, {"measurement": "Plant response rating, Ragweed", "setting": "ragweed; 62 g ai/ha", "value": 50}, {"measurement": "Plant response rating, Velvetleaf", "setting": "velvetleaf [7]; [11]", "value": 100}, {"measurement": "Velvetleaf plant response rating", "setting": "velvetleaf [7]; [12]", "value": 100}, {"measurement": "Plant response rating, Crabgrass, Large", "setting": "large (Lg) crabgrass [8]; [11]", "value": 70}, {"measurement": "Plant response rating, Crabgrass, Large", "setting": "large (Lg) crabgrass [8]; [13]", "value": 100}, {"measurement": "Plant response rating, Pigweed", "setting": "pigweed [9]; [11]", "value": 100}, {"measurement": "Plant response rating, Pigweed", "setting": "pigweed [9]; [13]", "value": 100}, {"measurement": "Plant response rating (0 to 100), Velvetleaf", "setting": "velvetleaf [10]; 125 g ai/ha", "value": 70}, {"measurement": "Plant response rating (0 to 100), Velvetleaf", "setting": "velvetleaf [10]; 250 g ai/ha", "value": 100}, {"measurement": "Plant response rating, Velvetleaf", "setting": "velvetleaf [10]; 31 g ai/ha, 13 to 15 days", "value": 45}, {"measurement": "Plant response rating, Velvetleaf", "setting": "velvetleaf [10]; 62 g ai/ha", "value": 50}]}
